According to patent EP0733369A1, “Protease inhibitors, a DNA construct for the expression of a protease and a process for measuring proteases and/or protease inhibitors” (Stichting REGA V.Z.W., priority 1995, dated 1996):
“Also recorded” adds a separate entry of the source. Structures can show the parent of a compound that is named as a salt.

Tests used:
[1] = target: T1, gelatinase B from neutrophils (Homo sapiens, UniProt P14780); experiment: gelatinase (inhibitor) microtiter plate assay with biotinylated gelatin; type: biochemical; set-up: endogenous in cells; host or cells: human neutrophils stimulated with lipopolysaccharide; conditioned medium; settings: for gelatinase B inhibitory activity in the plate assay (in words): qualitative statements
Experimental: The measurement of gelatinase activity was based on the detection of non-degraded biotinylated gelatin with a streptavidin-peroxidase conjugate. This test is based on the biotin-avidin method described by Sorbi et al. (25) but modified to a one plate assay (schematically represented in Fig. 1.). Gelatin (1mg/ml) was dissolved in 0.1 M sodium bicarbonate pH 8.3 by heating to 40°C. Biotin-N-hydroxysuccinimide ester was dissolved in dimethylsulfoxide (Me2SO) and was added to the gelatin in a 15-fold molar excess. The mixture was allowed to react overnight at 4°C and the biotinylated gelatin was then dialyzed against phosphate buffered saline (PBS). Neutrophil granulocyte (Neu) medium was collected from human neutrophils after stimulation with lipopolysaccharide (1µg/ml) overnight at 37°C in Minimal Essential Medium. Cells were removed by 10 min centrifugation at 1000 g. Purified gelatinase was obtained by one-step affinity chromatography of neutrophil medium on a gelatin-sepharose column as described (8).
Modified flat bottom 96-well ELISA plates were coated overnight with 0.5 µg/ml avidin in distilled water. The plates were then blocked with 0.3% bovine serum albumin (BSA, Sigma) in PBS for 1 hour at 37°C. Biotinylated gelatin was diluted to 50 µg/ml and 100µl was added to the avidin-coated wells. After incubation for one hour at 20°C, the plate was rinsed with PBS. Medium containing the secreted gelatinases from human neutrophils (dilution range 1/3-1/3^11) and the inhibitors were diluted in incubation buffer (50 mM Tris-HCl pH 7.5, 10 mM CaCl2, 0.02% (W/V) NaN3, 1% (V/V) Triton X-100) and 100 µl of each were mixed. 190 µl of the mixture was added to the gelatin-coated plates and allowed to digest the gelatin overnight at 37°C. The plates were then washed with PBS and each well was incubated with 100 µl peroxidase-conjugated-streptavidin at a 1:2000 dilution for 1 hour at 37°C. After rinsing the plate, the ABTS substrate was added (0.5 mg/ml solution containing 0.1 M citric acid, 0.2 M Na2HPO4, pH 4.3, 0.07 µl/ml 30% H2O2) and the optical density was read at 405 nm after 10 min. incubation at room temperature. Additional information on published test systems used here for comparison.
Gelatin is biotinylated and bound to avidin-coated microtiter plates. By addition of gelatinases the number of free biotin groups decreases and proportionally less streptavidin-peroxidase is bound to the residual substrate. Bound streptavidin-peroxidase activity is measured spectrophotometrically by reaction of peroxide with ABTS. Inhibition of gelatinase is obtained by the addition of inhibitor to a known amount of gelatinase prior to application to the plates. The peroxidase activity increases proportionally with the inhibitory activity.
Plates were first coated with 10µg/ml avidin and 50µg/ml biotinylated gelatin (theoretically saturating the avidin binding sites). As the sensitivity of the assay is dependent on the detection of the minimal amount of degraded biotinylated gelatin, we investigated wether decreasing the amount of biotin-gelatin (50 µg/ml-23 ng/ml) bound to the avidin-coated (10µg/ml) plate increased the sensitivity of the assay. […] Thus it was verified whether a decrease in the avidin coating could make the assay more sensitive (Fig. 2). […] In all further examples plates were coated with 0.5 µg/ml avidin and 50 µg/ml gelatin-biotin.
The titration curves of gelatinase inhibition were always related to a blanc curve and this for enzyme concentrations within the slope of the curve (vertical dotted lines Fig. 3). The decrease in enzyme activity to which the inhibitor-incubated sample corresponded was defined as the inhibition factor (IF).

[2] = target: T1, gelatinase B from neutrophils; experiment: zymography inhibition assay, inhibitor in developing buffer; type: biochemical; set-up: The 92 kDa neutrophil gelatinase is indicated with an arrowhead; endogenous in cells; host or cells: human neutrophils; purified from conditioned medium on gelatin-Sepharose; settings: qualitative statements
Experimental: Quantitative zymography was performed as described (7,8). Briefly, 40 µl of loading buffer was added to 40 µl of each sample and applied on 7.5% polyacrylamide gels which had been co-polymerised with 0.1% (w/v) gelatin. Stacking gels contained 5% polyacrylamide. The gels were run at 4°C for 16h at 90V. The gels were then incubated in washing buffer (50 mM Tris-HCl pH 7.5, 10mM CaCl2, O.O2% (W/V) NaN3, 2.5% (v/v) Triton X-100) at room temperature, 2x20 min to remove sodium dodecyl sulfate and overnight in developing buffer (50 mM Tris-HCl pH 7.5, 10mM CaCl2, O.O2% (w/v) NaN3, 1% (v/v) Triton X-100) at 37°C. The gels were then stained in Coomassie brilliant blue R-250 and destained in methanol/acetic acid. The sites of gelatinase activity appeared as unstained bands on a blue background and were quantified by computerised image analysis through scanning densitometry with a PDI scanner (Pharmacia, Belgium) and the PDI software package. For inhibition experiments, the inhibitors were dissolved in the developing buffer at the appropriate concentration. […] The enzyme activity was developed by staining of the substrate with Coomassie blue and quantification of the substrate digestion by scanning densitometry. […] The enzyme activity was developed by staining of the substrate with Coomassie blue and quantification of the substrate digestion by scanning densitometry. […]

[3] = tetracycline concentration 0,83 mg/ml
[4] = tetracycline concentration 1.67 mg/ml
[5] = tetracycline concentration 3.33 mg/ml
[6] = tetracycline concentration 3.33 mg/ml, HCl

T1 sequence (P14780 94-707): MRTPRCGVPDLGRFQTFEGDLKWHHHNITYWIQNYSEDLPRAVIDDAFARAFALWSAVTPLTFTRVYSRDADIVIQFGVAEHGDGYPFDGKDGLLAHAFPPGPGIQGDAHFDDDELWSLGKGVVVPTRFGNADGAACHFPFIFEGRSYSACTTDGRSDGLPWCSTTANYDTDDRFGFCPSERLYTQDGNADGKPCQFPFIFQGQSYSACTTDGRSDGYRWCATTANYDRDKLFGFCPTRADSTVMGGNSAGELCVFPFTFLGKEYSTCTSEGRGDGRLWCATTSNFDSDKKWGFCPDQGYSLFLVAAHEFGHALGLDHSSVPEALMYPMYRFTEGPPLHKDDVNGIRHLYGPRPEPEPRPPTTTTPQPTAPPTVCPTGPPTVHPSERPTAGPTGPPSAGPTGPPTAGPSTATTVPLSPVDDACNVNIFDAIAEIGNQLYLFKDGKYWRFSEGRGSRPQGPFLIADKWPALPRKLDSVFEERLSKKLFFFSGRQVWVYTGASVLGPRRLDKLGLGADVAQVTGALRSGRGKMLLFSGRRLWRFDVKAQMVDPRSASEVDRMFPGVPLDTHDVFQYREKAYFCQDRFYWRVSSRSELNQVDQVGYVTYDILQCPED

Compound | gelatinase B inhibitory activity in the plate assay (in words) [1] | Inhibition factor (IF) [1, 3] | Inhibition factor (IF) [1, 4] | Inhibition factor (IF) [1, 5] | also measured
C[C@H]1c2cccc(O)c2C(=O)C2=C(O)[C@]3(O)C(=O)C(C(N)=O)=C(O)[C@@H](N(C)C)[C@@H]3[C@@H](O)[C@@H]21 [doxycycline hyclate] | not active |  |  |  | 
Cc1c2c(c(O)c3c(O)cccc13)C(=O)C1(O)C(O)=C(C(N)=O)C(=O)C(N(C)C)C1C2 (centres unmarked) [4-epianhydrotetracycline HCl] | more active | 2 | 3 | precipitation | 
C=C1c2cccc(O)c2C(=O)C2=C(O)[C@]3(O)C(=O)C(C(N)=O)=C(O)[C@@H](N(C)C)[C@@H]3[C@@H](O)[C@H]12 [metacycline HCl] | very active | 3 | 8 | 27 | 
CN(C)c1ccc(O)c2c1C[C@H]1C[C@H]3[C@H](N(C)C)C(O)=C(C(N)=O)C(=O)[C@@]3(O)C(O)=C1C2=O [minocycline HCl] |  |  | 3 | 8 | gelatinase B inhibitory activity in the plate assay (in words) ([1]; listed as minocyclin, HCl): active as an inhibitor; gelatinase B inhibitory activity in the plate assay (in words) ([1]; listed as minocycline, HCl): confirmed in the plate assay; also recorded: active; inhibition of gelatinase B on zymography (in words) [2]: inhibits gelatinase B in a dose-dependent way
CN(C)[C@@H]1C(O)=C(C(N)=O)C(=O)[C@@]2(O)C(O)=C3C(=O)c4c(O)ccc(Cl)c4[C@@](C)(O)[C@H]3C[C@@H]12 [chlortetracycline HCl] |  | 9 | 27 | 45 | gelatinase B inhibitory activity in the plate assay (in words) ([1]; listed as Chlortetracycline HCl, HCl): most potent inhibitor; gelatinase B inhibitory activity in the plate assay (in words) ([1]; listed as Chlortetracycline, HCl): more active as a gelatinase inhibitor than the antibiotically more potent minocycline; also recorded: much more active than tetracycline; also recorded: most active
CN(C)[C@@H]1C(O)=C(C(N)=O)C(=O)[C@@]2(O)C(O)=C3C(=O)c4c(O)ccc(Cl)c4[C@@H](O)[C@H]3C[C@@H]12 [demethylchlortetracycline HCl] | not active |  |  |  | 
CN(C)[C@@H]1C(=O)C(C(N)=O)=C(O)[C@@]2(O)C(=O)C[C@@H]([C@]3(C)OC(=O)c4c(O)ccc(Cl)c43)C[C@@H]12 [isochlortetracycline HCl] |  |  |  | 3 | 
CN(C)C1C(=O)C(C(N)=O)=C(O)C2(O)C(=O)C3=C(O)c4c(O)cccc4C(C)(O)C3C(O)C12 (centres unmarked) [4-epioxytetracyline base] | more active |  | 3 | 20 | 
Cc1c2c(c(O)c3c(O)ccc(Cl)c13)C(=O)C1(O)C(O)=C(C(N)=O)C(=O)C(N(C)C)C1C2 (centres unmarked) [anhydrochlortetracycline HCl] |  |  |  |  | Inhibition factor (IF) ([1]; tetracycline concentration 1.67 mg/ml, HCl): 2; Inhibition factor (IF) [1, 6]: 6
7-aminominocycline HCl |  |  |  | precipitation | 
CN(C)c1ccc(O)c2c1C[C@H]1C[C@H]3[C@@H](N(C)C)C(O)=C(C(N)=O)C(=O)[C@@]3(O)C(O)=C1C2=O [4-epiminocycline HCl] | less active |  |  | 3 | 
Cc1c2c(c(O)c3c(O)ccc(Cl)c13)C(=O)C1(O)C(O)=C(C(N)=O)C(=O)C(N(C)C)C1C2 (centres unmarked) [4-epianhydrochlortetracycline HCl] | less active |  |  |  | Inhibition factor (IF) [1, 6]: 3
CN(C)[C@@H]1C(O)=C(C(N)=O)C(=O)[C@@]2(O)C(O)=C3C(=O)c4c(O)cccc4C[C@H]3C[C@@H]12.Cl [6-deoxy-6-demethyltetracycline HCl] |  | 3 | 5 | 8 | 
CN(C)[C@@H]1C(O)=C(C(N)=O)C(=O)[C@@]2(O)C(O)=C3C(=O)c4c(O)cccc4[C@@](C)(O)[C@H]3C[C@@H]12 [tetracycline HCl] |  |  | 3 | 8 | 
4-epitetracycline HCl |  |  | 3 |  | 
CN(C)C1C(=O)C(C(N)=O)=C(O)C2(O)C(=O)C3=C(O)c4c(O)ccc(Cl)c4C(C)(O)C3CC12 (centres unmarked) [4-epichlortetracycline HCl] | less active | 3 | 9 | precipitation | 
